In patent publication US7947647B2, “Synthetic mimics of mammalian cell surface receptors: method and compositions” (The Penn State Research Foundation, priority 2004, dated 2011):
Values joined by “and” are separate entries in the source; they are usually repeats but may differ in a detail not shown here. Identical values can stand only once.

Experiments:
Jurkat lymphocytes [1] = assay type: cell-based
Protocol: Analysis of cytotoxicity of protein delivery.
To examine the toxicity of this metal acetate and protein delivery, cellular viability was examined by flow cytometry. In these experiments, Jurkat lymphocytes were treated with receptor 1 (10 μM, 1 h), followed by AcGFP(His)10 (3.2 μM), and Ni(OAc)2 (100 μM, 4 h) to enhance protein uptake by 600-fold. Cells were washed with disodium NTA to remove cell surface protein and were cultured for an additional 48 h. Cellular viability was determined by light scattering and staining the nuclei of membrane-compromised dead cells with the fluorophore propidium iodide. Under these conditions, 97% of the cells were viable, compared with 98.6% of untreated controls, and no effects on cellular morphology were observed. Other studies have similarly reported low toxicity of nickel salts at <160 μM in cell culture.^14 By enabling common oligohistidine affinity tags to function as cell penetrating peptides, synthetic receptor 1 provides a potentially versatile new probe of cellular biology.

Jurkat lymphocytes [2] = experiment: Uptake of AcGFP-oligohistidine fusion proteins (flow cytometry); assay type: cell-based, human; details: receptor 10 μM preloaded 1 h, protein 3.2 μM, Ni(OAc)2 100 μM
Protocol: FIG. 25. Analysis of cellular uptake of His-tagged AcGFP proteins by flow cytometry. Each bar represents the average fluorescence of 10,000 cells. Unless otherwise noted, cellular plasma membranes of Jurkat lymphocytes were preloaded with receptor 1 (10 μM) for 1 h at 37° C., cells were washed with fresh media, and His-tagged AcGFP (3.2 μM)/metal diacetate solution (100 μM) was added for 4 h at 37° C. Prior to analysis, cells were washed with NTA (400 μM, 30 min) in PBS (pH 7.4) to remove bound surface protein. Panel A: Dose dependence of receptor-mediated uptake. Premix conditions: a solution containing receptor 1, Ni(OAc)2, and AcGFP(His)10 was added to cells for 4 h. Panel B: Dependence on [Ni(OAc)2]. Panel C: Omission control experiments. Panel D; Uptake of (His)6 and (His)10 fusion proteins promoted by different metal diacetates.
Preload conditions: To Jurkat lymphocytes (7×10^5) in RPMI media (0.5 mL) was added synthetic receptor 1 (typical final [Receptor 1]=10 μM) in DMSO (final [DMSO]=1%). These cells were incubated at 37° C. for 1 h to load the receptor into cellular plasma membranes. The cells were washed with RPMI media (0.5 mL) to remove unincorporated receptor/DMSO and resuspended in fresh media (87.6 μL). […]

CC(C)CCC[C@@H](C)[C@H]1CC[C@H]2[C@@H]3CC=C4C[C@@H](NCCCCC(=O)NCCC(=O)NCCC(=O)NCCCCC(C(=O)O)N(CC(=O)O)CC(=O)O)CC[C@]4(C)[C@H]3CC[C@]12C (stereo partly drawn) [receptor 1, 4-Carboxy-3-(carboxymethyl)-22-[(3β)-cholest-5-en-3-ylamino]-10,14,18-trioxo-3,9,13,17-tetraazadocosan-1-oic acid]
effects on viability or cellular morphology (Jurkat lymphocytes [1]): No significant effects on viability or cellular morphology were observed
cells viable (Jurkat lymphocytes [1]; human, 10 μM): 97%
intracellular delivery of AcGFP(His)10 above basal levels of endocytosis (Jurkat lymphocytes [2]): > 600 fold and 600 fold
